Like-named read-outs stand apart in the source and are kept apart here. Non-standard residues stand in square brackets, D forms with d. Residues, ends and D or L forms follow the SMILES beside them. No end group written: not given here. Orn = NCCC[C@H](N)C(=O)O

Holding throughout (format): biochemical
Assay [1] concerns the target T1, PKG1β (h) (Homo sapiens, UniProt Q13976).
T1 construct: purchased Eurofins Pharma Discovery Services UK Ltd (contract assay service)
T1 sequence (Q13976 1-686 isoform Q13976-2): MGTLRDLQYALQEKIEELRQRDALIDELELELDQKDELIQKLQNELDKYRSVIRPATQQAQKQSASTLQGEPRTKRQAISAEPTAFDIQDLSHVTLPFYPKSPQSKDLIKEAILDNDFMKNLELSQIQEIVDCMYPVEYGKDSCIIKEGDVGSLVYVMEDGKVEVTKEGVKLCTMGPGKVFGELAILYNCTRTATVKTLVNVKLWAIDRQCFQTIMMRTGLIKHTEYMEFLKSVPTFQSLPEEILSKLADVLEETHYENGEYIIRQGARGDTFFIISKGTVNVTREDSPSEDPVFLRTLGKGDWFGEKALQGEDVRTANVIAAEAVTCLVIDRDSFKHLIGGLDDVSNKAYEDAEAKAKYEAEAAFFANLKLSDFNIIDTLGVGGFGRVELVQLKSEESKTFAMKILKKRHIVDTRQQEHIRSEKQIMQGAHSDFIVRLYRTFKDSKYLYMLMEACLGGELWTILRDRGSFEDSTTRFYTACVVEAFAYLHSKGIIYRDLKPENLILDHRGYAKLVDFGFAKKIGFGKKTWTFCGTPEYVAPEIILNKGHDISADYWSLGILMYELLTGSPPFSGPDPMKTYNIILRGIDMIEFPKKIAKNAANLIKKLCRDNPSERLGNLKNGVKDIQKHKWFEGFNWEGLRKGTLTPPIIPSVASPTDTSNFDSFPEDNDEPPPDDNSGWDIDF
Briefly: PKG1β kinase activity assay, cell free. How it is done: (§1) The capacity of test peptides to inhibit the activity of the kinases PKG1α, PKG1β, and Src family kinases in a cell free assay was assessed. The test peptides were amidated at their C-terminal end (indicated by “—NH2”) unless otherwise noted. Kinase activity assays were conducted by Eurofins Pharma Discovery Services UK Ltd (Dundee Technology Park, Dundee, United Kingdom) and Reaction Biology Corp. (Malvern, Pa., USA).
(§2) All test peptides are prepared to 50× final assay concentration in 100% DMSO. This working stock of the test compound is added to assay wells as the first component in the reaction, followed by the remaining components of the respective assay protocols described below. There is no pre-incubation step between the test peptide and the kinase prior to initiation of the reaction. The kinases are diluted in buffer (20 mM MOPS, 1 mM EDTA, 0.01% Brij-35, 5% Glycerol, 0.1% β-mercaptoethanol, 1 mg/mL BSA) prior to addition to the reaction mix.
(§3) Positive control wells contain all components of the reaction, except the test peptide of interest. However, DMSO (at a final concentration of 2%) is included in positive control wells to control for solvent effects. Negative control wells contain all components of the reaction, with a reference inhibitor (staurosporine) replacing the test peptide. This abolishes kinase activity and establishes a base-line (0% kinase activity). Kinase assay protocols (Eurofins Pharma Discovery Services UK Ltd, Dundee Technology Park, Dundee, United Kingdom) are described below. Of the Src family kinases, only the assay protocol for c-Src is shown.
PKG1b(h) is incubated with 8 mM MOPS pH 7.0, 0.2 mM EDTA, 10 μM cGMP, 200 μM RRRLSFAEPG, 10 mM magnesium acetate and [γ-^33P]-ATP (specific activity approx. 500 cpm/pmol, concentration as required). The reaction is initiated by the addition of the MgATP mix. After incubation for 40 minutes at room temperature, the reaction is stopped by the addition of 3% phosphoric acid solution. A 10 μL aliquot of the reaction is then spotted onto a P30 filtermat and washed three times for 5 mins in 75 mM phosphoric acid and once in methanol prior to drying and scintillation counting.

Assay [2] concerns the target T2, c-Src (h) (Homo sapiens, UniProt P12931).
T2 construct: purchased Eurofins Pharma Discovery Services UK Ltd (contract assay service)
The assay can be described thus: c-Src kinase activity assay, cell free. On the procedure:
as §1, §2, §3
c-Src (h) is incubated with 8 mM MOPS pH 7.0, 0.2 mM EDTA, 250 μM KVEKIGEGTYGVVYK (Cdc2 peptide), 10 mM MgAcetate and [γ-^33P]-ATP (specific activity approx. 500 cpm/pmol, concentration as required). The reaction is initiated by the addition of the MgATP mix. After incubation for 40 minutes at room temperature, the reaction is stopped by the addition of 3% phosphoric acid solution. A 10 μL aliquot of the reaction is then spotted onto a P30 filtermat and washed three times for 5 minutes in 75 mM phosphoric acid and once in methanol prior to drying and scintillation counting.

The target in assay [3] is T3, PKG1α (h) (Homo sapiens, UniProt Q13976).
T3 construct: purchased Eurofins Pharma Discovery Services UK Ltd (contract assay service)
T3 sequence (Q13976 1-671): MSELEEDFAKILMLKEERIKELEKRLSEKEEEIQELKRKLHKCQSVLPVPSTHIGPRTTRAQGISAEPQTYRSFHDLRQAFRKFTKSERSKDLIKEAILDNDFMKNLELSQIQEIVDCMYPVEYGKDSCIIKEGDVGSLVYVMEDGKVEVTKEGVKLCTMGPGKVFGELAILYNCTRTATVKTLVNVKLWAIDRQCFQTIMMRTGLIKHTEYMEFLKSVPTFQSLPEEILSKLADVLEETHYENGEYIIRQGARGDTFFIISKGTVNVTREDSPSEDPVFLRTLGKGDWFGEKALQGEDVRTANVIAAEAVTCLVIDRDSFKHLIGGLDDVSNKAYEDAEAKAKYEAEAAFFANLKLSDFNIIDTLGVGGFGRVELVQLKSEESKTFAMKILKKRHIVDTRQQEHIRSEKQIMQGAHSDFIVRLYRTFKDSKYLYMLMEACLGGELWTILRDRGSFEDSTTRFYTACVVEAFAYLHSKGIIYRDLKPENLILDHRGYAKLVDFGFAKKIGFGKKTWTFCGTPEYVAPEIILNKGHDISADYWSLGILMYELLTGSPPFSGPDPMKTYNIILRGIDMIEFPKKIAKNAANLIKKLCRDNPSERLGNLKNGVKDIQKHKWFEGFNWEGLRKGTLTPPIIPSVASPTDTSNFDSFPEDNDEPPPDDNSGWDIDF
The assay can be described thus: PKG1α kinase activity assay, cell free. On the procedure: as §1, §2, §3
PKG1α (h) is incubated with 8 mM MOPS pH 7.0, 0.2 mM EDTA, 10 μM cGMP, 200 μM peptide RRRLSFAEPG, 10 mM magnesium acetate and [γ-^33P]-ATP (specific activity approx. 500 cpm/pmol, concentration as required). The reaction is initiated by the addition of the MgATP mix. After incubation for 40 minutes at room temperature, the reaction is stopped by the addition of 3% phosphoric acid solution. A 10 μL aliquot of the reaction is then spotted onto a P30 filtermat and washed three times for 5 mins in 75 mM phosphoric acid and once in methanol prior to drying and scintillation counting.

The mark [4] stands for this setting: cell free, 10 μM cGMP, 40 minutes at room temperature, read-out: PKG1β IC50.
Where [5] appears, read: cell free, 40 minutes at room temperature, read-out: c-Src IC50.
The mark [6] stands for this setting: cell free, 10 μM cGMP, 40 minutes at room temperature, read-out: PKG1α IC50.

T2 sequence (P12931 whole entry): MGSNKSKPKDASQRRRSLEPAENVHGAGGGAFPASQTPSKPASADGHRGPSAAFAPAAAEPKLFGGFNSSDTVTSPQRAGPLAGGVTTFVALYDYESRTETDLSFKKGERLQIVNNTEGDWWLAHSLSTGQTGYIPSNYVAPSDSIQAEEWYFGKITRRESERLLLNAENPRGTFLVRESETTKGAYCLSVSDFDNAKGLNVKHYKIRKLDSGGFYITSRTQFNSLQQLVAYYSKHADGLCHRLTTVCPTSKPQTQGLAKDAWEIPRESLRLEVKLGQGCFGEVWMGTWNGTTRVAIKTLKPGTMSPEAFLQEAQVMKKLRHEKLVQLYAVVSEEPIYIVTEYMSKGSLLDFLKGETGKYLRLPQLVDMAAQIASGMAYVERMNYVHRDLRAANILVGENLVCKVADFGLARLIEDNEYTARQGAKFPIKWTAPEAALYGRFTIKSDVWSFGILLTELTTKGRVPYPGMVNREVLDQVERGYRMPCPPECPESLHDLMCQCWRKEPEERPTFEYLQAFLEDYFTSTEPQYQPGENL

Turning to `N=C(N)NCCC[C@H](NC(=O)[C@H](CCCNC(=N)N)NC(=O)[C@H](CCCNC(=N)N)NC(=O)[C@H](CCCNC(=N)N)NC(=O)[C@H](CCCNC(=N)N)NC(=O)[C@H](CCCNC(=N)N)NC(=O)[C@H](CCCNC(=N)N)NC(=O)[C@H](CCCNC(=N)N)NC(=O)[C@H](CCCNC(=N)N)NC(=O)[C@@H](N)CCCNC(=N)N)C(N)=O` [IK00100, RRRRRRRRRR-NH2], the IC50 (commonly the midpoint of a concentration-inhibition curve) stood at 9 nM in assay [1] (setting [4]), 7 nM in assay [2] (setting [5]) and 16 nM in assay [3] (setting [6]).
Regarding `N=C(N)NCCC[C@H](NC(=O)[C@H](CCCNC(=N)N)NC(=O)[C@H](CCCNC(=N)N)NC(=O)[C@H](CCCNC(=N)N)NC(=O)[C@H](CCCNC(=N)N)NC(=O)[C@H](CCCNC(=N)N)NC(=O)[C@H](CCCNC(=N)N)NC(=O)[C@H](CCCNC(=N)N)NC(=O)[C@H](CCCNC(=N)N)NC(=O)[C@H](CCCNC(=N)N)NC(=O)[C@H](CCCNC(=N)N)NC(=O)[C@H](CCCNC(=N)N)NC(=O)[C@H](CCCNC(=N)N)NC(=O)[C@@H](N)CCCNC(=N)N)C(=O)O` [IK0140H, RRRRRRRRRRRRRR], the IC50 in assay [1] was 7 nM; in assay [2] it was over 1000 nM; in assay [3], 7 nM.
`N=C(N)NCCC[C@H](NC(=O)[C@H](CCCNC(=N)N)NC(=O)[C@H](CCCNC(=N)N)NC(=O)[C@H](CCCNC(=N)N)NC(=O)[C@H](CCCNC(=N)N)NC(=O)[C@@H](N)CCCNC(=N)N)C(N)=O` [IK00600, RRRRRR-NH2]: the IC50 in assay [1] (setting [4]) was 457 nM; in assay [2] (setting [5]), 100 nM; in assay [3] (setting [6]), over 1000 nM.
In the same order, the values of `N=C(N)NCCC[C@H](NC(=O)[C@H](CCCNC(=N)N)NC(=O)[C@H](CCCNC(=N)N)NC(=O)[C@H](CCCNC(=N)N)NC(=O)[C@H](CCCNC(=N)N)NC(=O)[C@H](CCCNC(=N)N)NC(=O)[C@H](CCCNC(=N)N)NC(=O)[C@@H](N)CCCNC(=N)N)C(N)=O` [IK00800, RRRRRRRR-NH2] are 55 nM, 26 nM and 75 nM.
In the same order, the values of `N=C(N)NCCC[C@H](NC(=O)[C@H](CCCNC(=N)N)NC(=O)[C@H](CCCNC(=N)N)NC(=O)[C@H](CCCNC(=N)N)NC(=O)[C@H](CCCNC(=N)N)NC(=O)[C@H](CCCNC(=N)N)NC(=O)[C@H](CCCNC(=N)N)NC(=O)[C@H](CCCNC(=N)N)NC(=O)[C@@H](N)CCCNC(=N)N)C(N)=O` [IK00900, RRRRRRRRR-NH2] are 22 nM, 4 nM and 33.5 nM.
Turning to `N=C(N)NCCC[C@H](NC(=O)[C@H](CCCNC(=N)N)NC(=O)[C@H](CCCNC(=N)N)NC(=O)[C@H](CCCNC(=N)N)NC(=O)[C@H](CCCNC(=N)N)NC(=O)[C@H](CCCNC(=N)N)NC(=O)[C@H](CCCNC(=N)N)NC(=O)[C@H](CCCNC(=N)N)NC(=O)[C@H](CCCNC(=N)N)NC(=O)[C@H](CCCNC(=N)N)NC(=O)[C@H](CCCNC(=N)N)NC(=O)[C@@H](N)CCCNC(=N)N)C(N)=O` [IK01200, RRRRRRRRRRRR-NH2], the results for the IC50 in assay [1], in assay [2] and in assay [3] were 7 nM, 6 nM and 8 nM, respectively.
For `NCCC[C@H](NC(=O)[C@H](CCCN)NC(=O)[C@H](CCCN)NC(=O)[C@H](CCCN)NC(=O)[C@H](CCCN)NC(=O)[C@H](CCCN)NC(=O)[C@H](CCCN)NC(=O)[C@H](CCCN)NC(=O)[C@H](CCCN)NC(=O)[C@@H](N)CCCN)C(N)=O` [IKNOR10, OrnOrnOrnOrnOrnOrnOrnOrnOrnOrn-NH2, reference compound] (H-[Orn][Orn][Orn][Orn][Orn][Orn][Orn][Orn][Orn][Orn]-NH2; N-terminus assumed) the same measures were over 1000 nM, 7 nM and over 1000 nM.
In the case of “HHHHHHHHHH-NH2 [IK00010, HHHHHHHHHH-NH2, reference compound]”, the IC50 in assay [1] (setting [4]), in assay [2] (setting [5]) and in assay [3] (setting [6]) was over 1000 nM in each case.
Take “KKKKKKKKKK-NH2 [IK00K00, KKKKKKKKKK-NH2, reference compound]”: the IC50 in assay [1] (setting [4]) was over 1000 nM; in assay [2] (setting [5]), 96 nM; in assay [3] (setting [6]) it was over 1000 nM.
On to “RRRRRRRRRRRRRRRR-NH2 [IK01600, RRRRRRRRRRRRRRRR-NH2]”, for which the half-inhibitory concentration (IC50) in assay [1] (setting [4]) amounted to 4 nM; in assay [2] (setting [5]) it was 4 nM; in assay [3] (setting [6]), 6 nM.
As to RRRRRRRRRRRRRRRRRRRR-NH2 [IK00200], the IC50 in assay [1] (setting [4]) and in assay [3] (setting [6]) was 6 nM each time.
